Results: EP4782450A1, “NOVEL SKELETAL DERIVATIVE EFFECTIVE FOR HER2 MUTATION, AND PHARMACEUTICAL COMPOSITION COMPRISING SAME” (Hanmi Pharm. Co., Ltd., priority 2023, dated 2025)
Where two headings read alike, the source gives them in different places.

How the values were obtained:
[1] = system: Ba/F3 HER2 A775insYVMA; experiment: Growth inhibition of Ba/F3 cells engineered to overexpress HER2 A775_G776insYVMA (CellTiter-Glo luminescence); format: cell-based; conditions: concentrations 1000 to 0.32 nM, read-out: Ba/F3 HER2^YVMA GI50 class
Procedure, shortened: (§1)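 Ba/F3 cells overexpressing HER2 A775_G776insYVMA (1000–0.32 nM) or wild-type EGFR (10000–8 nM) treated 72 h at 37°C in RPMI/10% FBS. Viability by CellTiter-Glo luminescence; GI50 by nonlinear regression with untreated growth set at 100%.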

[2] = system: wild-type EGFR overexpressing Ba/F3 cells; experiment: Growth inhibition of Ba/F3 cells engineered to overexpress wild-type EGFR (CellTiter-Glo luminescence); format: cell-based; conditions: concentrations 10000 to 8 nM, read-out: Ba/F3 EGFR^WT GI50 class
Procedure, shortened: as §1

GI50 ([1]; Mus musculus, BaF3, 72 hours) | GI50 ([2]; Mus musculus, BaF3, 72 hours) | GI50 ([1]; 72 hours) | GI50 ([2]; 72 hours) | Compound
100 to 1000 nM | > 5000 nM |  |  | C=CC(=O)NCCOc1ccc2ncnc(Nc3ccc(Oc4ccc5c(c4)ncn5C)c(C)c3)c2n1 [Example 7, N-(2-((4-((3-methyl-4-((1-methyl-1H-benzo[d]imidazol-5-yl)oxy)phenyl)amino)pyrido[3,2-d]pyrimidin-6-yl)oxy)ethyl)acrylamide]
< 100 nM | 1000 to 5000 nM |  |  | C=CC(=O)N(C)C/C=C/c1ccc2ncnc(Nc3ccc(Oc4ccc5c(c4)ncn5C)c(Cl)c3)c2n1 [Example 25, (E)-N-(3-(4-((3-chloro-4-((1-methyl-1H-benzo[d]imidazol-5-yl)oxy)phenyl)amino)pyrido[3,2-d]pyrimidin-6-yl)allyl)-N-methylacrylamide]
< 100 nM | > 5000 nM |  |  | C=CC(=O)N(C)CCOc1ccc2ncnc(Nc3ccc(Oc4ccc5c(c4)ncn5C)c(C)c3)c2c1 [Example 5, N-methyl-N-(2-((4-((3-methyl-4-((1-methyl-1H-benzo[d]imidazol-5-yl)oxy)phenyl)amino)quinazolin-6-yl)oxy)ethyl)acrylamide]
< 100 nM | 100 to 1000 nM |  |  | C=CC(=O)N(C)C/C=C/c1ccc2ncnc(Nc3ccc(Cc4ccn5ncnc5c4)c(C)c3)c2n1 [Example 56, (E)-N-(3-(4-((4-([1,2,4]triazolo[1,5-a]pyridin-7-ylmethyl)-3-methylphenyl)amino)pyrido[3,2-d]pyrimidin-6-yl)allyl)-N-methylacrylamide]
< 100 nM | 100 to 1000 nM |  |  | C=CC(=O)N(C)CCOc1cc2c(Nc3ccc(Oc4ccn5ncnc5c4)c(C)c3)ncnc2cc1OC [Example 2, N-(2-((4-((4-([1,2,4]triazolo[1,5-a]pyridin-7-yloxy)-3-methylphenyl)amino)-7-methoxyquinazolin-6-yl)oxy)ethyl)-N-methylacrylamide]
< 100 nM | 100 to 1000 nM |  |  | C=CC(=O)NC/C=C/c1ccc2ncnc(Nc3ccc(Oc4ccn5ncnc5c4)c(C)c3)c2n1 [Example 38, (E)-N-(3-(4-((4-([1,2,4]triazolo[1,5-a]pyridin-7-yloxy)-3-methylphenyl)amino)pyrido[3,2-d]pyrimidin-6-yl)allyl)acrylamide]
< 100 nM | 100 to 1000 nM |  |  | C=CC(=O)N1CC[C@@H]1C#Cc1ccc2ncnc(Nc3ccc(Oc4ccn5ncnc5c4)c(C)c3)c2c1 [Example 78, (R)-1-(2-((4-((4-([1,2,4]triazolo[1,5-a]pyridin-7-yloxy)-3-methylphenyl)amino)quinazolin-6-yl)ethynyl)azetidin-1-yl)prop-2-en-1-one]
< 100 nM | 1000 to 5000 nM |  |  | C=CC(=O)N1CC(/C=C/c2ccc3ncnc(Nc4ccc(Oc5cnc6c(c5)ncn6C)c(C)c4F)c3n2)C1 [Example 47]
100 to 1000 nM | > 5000 nM |  |  | Cc1cc(Nc2ncnc3ccc(/C=C/CN(C)C(=O)/C=C/CN4CCOCC4)nc23)ccc1Oc1ccc2c(c1)ncn2C [Example 62, (E)-N-methyl-N-((E)-3-(4-((3-methyl-4-((1-methyl-1H-benzo[d]imidazol-5-yl)oxy)phenyl)amino)pyrido[3,2-d]pyrimidin-6-yl)allyl)-4-morpholinobut-2-enamide]
< 100 nM | 100 to 1000 nM |  |  | C=CC(=O)N(C)CCOc1ccc2ncnc(Nc3ccc(Oc4ccn5ncnc5c4)c(C)c3)c2n1 [Example 3, N-(2-((4-((4-([1,2,4]triazolo[1,5-a]pyridin-7-yloxy)-3-methylphenyl)amino)pyrido[3,2-d]pyrimidin-6-yl)oxy)ethyl)-N-methylacrylamide]
100 to 1000 nM | 1000 to 5000 nM |  |  | C=CC(=O)N(C)c1cccc(/C=C/c2ccc3ncnc(Nc4ccc(Oc5ccc6c(c5)ncn6C)c(C)c4)c3n2)c1 [Example 63, (E)-N-methyl-N-(3-(2-(4-((3-methyl-4-((1-methyl-1H-benzo[d]imidazol-5-yl)oxy)phenyl)amino)pyrido[3,2-d]pyrimidin-6-yl)vinyl)phenyl)acrylamide]
< 100 nM | 1000 to 5000 nM |  |  | Cc1c(Oc2ccc3c(c2)ncn3C)ccc(Nc2ncnc3ccc(/C=C/CNC(=O)/C=C/CN(C)C)nc23)c1F [Example 41, (E)-4-(dimethylamino)-N-((E)-3-(4-((2-fluoro-3-methyl-4-((1-methyl-1H-benzo[d]imidazol-5-yl)oxy)phenyl)amino)pyrido[3,2-d]pyrimidin-6-yl)allyl)but-2-enamide]
< 100 nM | 100 to 1000 nM |  |  | C=CC(=O)N1CCCC[C@@H]1C#Cc1ccc2ncnc(Nc3ccc(Oc4ccn5ncnc5c4)c(C)c3)c2c1 [Example 76, (R)-1-(2-((4-((4-([1,2,4]triazolo[1,5-a]pyridin-7-yloxy)-3-methylphenyl)amino)quinazolin-6-yl)ethynyl)piperidin-1-yl)prop-2-en-1-one]
 |  | 100 to 1000 nM | 1000 to 5000 nM | N-(2-((4-((4-([1,2,4]triazolo[1,5-a]pyridin-7-yloxy)-3-methylphenyl)amino)pyrido[3,2-d]pyrimidin-6-yl)amino)ethyl)-N-methylacrylamide [Example 11]
< 100 nM | > 5000 nM |  |  | C=CC(=O)NC/C=C/c1ccc2ncnc(Nc3ccc(Oc4ccc5c(c4)ncn5C)c(C)c3F)c2n1 [Example 35, (E)-N-(3-(4-((2-fluoro-3-methyl-4-((1-methyl-1H-benzo[d]imidazol-5-yl)oxy)phenyl)amino)pyrido[3,2-d]pyrimidin-6-yl)allyl)acrylamide]
< 100 nM | 1000 to 5000 nM |  |  | C=CC(=O)N(C)CCNc1ccc2ncnc(Nc3ccc(Oc4ccc5c(c4)ncn5C)c(C)c3)c2n1 [Example 15, N-methyl-N-(2-((4-((3-methyl-4-((1-methyl-1H-benzo[d]imidazol-5-yl)oxy)phenyl)amino)pyrido[3,2-d]pyrimidin-6-yl)amino)ethyl)acrylamide]
 |  | < 100 nM | 1000 to 5000 nM | (S)-1-(2-((4-((3-methyl-4-((1-methyl-1H-benzo[d]imidazol-5-yl)oxy)phenyl)amino)pyrido[3,2-d]pyrimidin-6-yl)ethynyl)pyrrolidin-1-yl)prop-2-en-1-one [Example 87]
< 100 nM | 100 to 1000 nM |  |  | C=CC(=O)N(C)CC#Cc1ccc2ncnc(Nc3ccc(Oc4ccn5ncnc5c4)c(C)c3)c2n1 [Example 68, N-(3-(4-((4-([1,2,4]triazolo[1,5-a]pyridin-7-yloxy)-3-methylphenyl)amino)pyrido[3,2-d]pyrimidin-6-yl)prop-2-yn-1-yl)-N-methylacrylamide]
< 100 nM | 1000 to 5000 nM |  |  | Cc1cc(Nc2ncnc3ccc(/C=C/CNC(=O)/C=C/CN4CCCCC4)nc23)ccc1Oc1ccc2c(c1)ncn2C [Example 59, (E)-N-((E)-3-(4-((3-methyl-4-((1-methyl-1H-benzo[d]imidazol-5-yl)oxy)phenyl)amino)pyrido[3,2-d]pyrimidin-6-yl)allyl)-4-(piperidin-1-yl)but-2-enamide]
< 100 nM | > 5000 nM |  |  | C=CC(=O)NC/C=C/c1ccc2ncnc(Nc3ccc(Oc4cnc5c(c4)ncn5C)c(C)c3)c2n1 [Example 34, (E)-N-(3-(4-((3-methyl-4-((3-methyl-3H-imidazo[4,5-b]pyridin-6-yl)oxy)phenyl)amino)pyrido[3,2-d]pyrimidin-6-yl)allyl)acrylamide]
< 100 nM | 100 to 1000 nM |  |  | C=CC(=O)N1CCC[C@H]1C#Cc1ncc2ncnc(Nc3ccc(Oc4ccn5ncnc5c4)c(C)c3)c2n1 [Example 84, (S)-1-(2-((8-((4-([1,2,4]triazolo[1,5-a]pyridin-7-yloxy)-3-methylphenyl)amino)pyrimido[5,4-d]pyrimidin-2-yl)ethynyl)pyrrolidin-1-yl)prop-2-en-1-one]
< 100 nM | < 100 nM |  |  | C=CC(=O)N1CCC[C@@H]1C#Cc1ncc2ncnc(Nc3ccc(Oc4ccn5ncnc5c4)c(C)c3)c2n1 [Example 83, (R)-1-(2-((8-((4-([1,2,4]triazolo[1,5-a]pyridin-7-yloxy)-3-methylphenyl)amino)pyrimido[5,4-d]pyrimidin-2-yl)ethynyl)pyrrolidin-1-yl)prop-2-en-1-one]
< 100 nM | > 5000 nM |  |  | C=CC(=O)N(CC)C/C=C/c1ccc2ncnc(Nc3ccc(Oc4ccc5c(c4)ncn5C)c(C)c3)c2n1 [Example 49, (E)-N-ethyl-N-(3-(4-((3-methyl-4-((1-methyl-1H-benzo[d]imidazol-5-yl)oxy)phenyl)amino)pyrido[3,2-d]pyrimidin-6-yl)allyl)acrylamide]
< 100 nM | 1000 to 5000 nM |  |  | C=CC(=O)N(C)C/C=C/c1ccc2ncnc(Nc3ccc(Oc4ccc5c(c4)ncn5C)c(C)c3F)c2n1 [Example 42, (E)-N-(3-(4-((2-fluoro-3-methyl-4-((1-methyl-1H-benzo[d]imidazol-5-yl)oxy)phenyl)amino)pyrido[3,2-d]pyrimidin-6-yl)allyl)-N-methylacrylamide]
100 to 1000 nM | < 100 nM |  |  | C=CC(=O)NC/C=C/c1ccc2ncnc(Nc3ccc(Oc4ccn5nccc5c4)c(C)c3)c2n1 [Example 37, (E)-N-(3-(4-((3-methyl-4-(pyrazolo[1,5-a]pyridin-5-yloxy)phenyl)amino)pyrido[3,2-d]pyrimidin-6-yl)allyl)acrylamide]
100 to 1000 nM | 1000 to 5000 nM |  |  | C=CC(=O)N(C)CC#Cc1ccc2ncc(C#N)c(Nc3ccc(Oc4ccn5ncnc5c4)c(C)c3)c2c1 [Example 70, N-(3-(4-((4-([1,2,4]triazolo[1,5-a]pyridin-7-yloxy)-3-methylphenyl)amino)-3-cyanoquinolin-6-yl)prop-2-yn-1-yl)-N-methylacrylamide]
< 100 nM | 100 to 1000 nM |  |  | C=CC(=O)N1CCC[C@H]1C#Cc1ccc2ncnc(Nc3ccc(Oc4ccn5ncnc5c4)c(C)c3)c2n1 [Example 81, (S)-1-(2-((4-((4-([1,2,4]triazolo[1,5-a]pyridin-7-yloxy)-3-methylphenyl)amino)pyrido[3,2-d]pyrimidin-6-yl)ethynyl)pyrrolidin-1-yl)prop-2-en-1-one]
